The term EC50 denotes the concentration at which the effect is half-maximal.

Some results are limits rather than exact numbers.

The test has as its target T1, human GPR40 (Homo sapiens, UniProt O14842).
T1 construct: expressed in transfected cells; host or cells: CHO cells, transiently transfected with Lipofectamine 2000 and co-transfected with an aequorin expression vector (Euroscreen)
Put plainly: Cell-based aequorin assay using human GPR40. The settings on record: activation of human GPR40; CHO cells transfected with GPR40 and aequorin expression vectors; aequorin luminescence, area-under-curve 2-20 seconds; read-out: Relative EC50. The protocol:
A cell-based aequorin assay may be employed to characterize the modulatory activity of compounds on the GPR40 signaling pathway. In an exemplary assay, CHO cells are transfected in a 15 cm plated containing 14 million cells with 5 μg of GPR40 expression vector and 5 μg of Aequorin expression vector (Euroscreen) using Lipofectamine 2000 (Invitrogen). After 17-24 hours post-transfection, cells are washed with phosphate buffered saline (PBS) and detached from the tissue culture dish with 2 mL of trypsin (0.25%(w/v)). Trypsinization is halted with 28 mL of Hanks Buffered Salt Solution containing 20 mM Hepes (H/HBSS) and 0.01% fatty acid-free bovine serum albumin (BSA) or 0.625% fatty acid-free human serum albumin (HSA). Coelantrazine is added to 1 ug/mL and the cells are incubated for 2 hours at room temperature. Cells are gently mixed every 15 minutes. Compounds are dissolved in dimethyl sulfoxide for preparation of 10 mM stock solutions. Compounds are diluted in H/HBSS containing either 0.01% BSA or 0.625% HSA. Serial dilutions of the test compounds are prepared to determine dose response.
Aequorin luminescence measurements are made using an EG&G Berthold 96-well luminometer and the response is measured over a 20 second interval after cells and compounds were mixed. The area-under-curve from 2-20 seconds is plotted to determine dose reponse. The EC50 (effective concentration to reach 50% maximal response) is determined from the dose response plot. […]

T1 sequence (O14842 whole entry): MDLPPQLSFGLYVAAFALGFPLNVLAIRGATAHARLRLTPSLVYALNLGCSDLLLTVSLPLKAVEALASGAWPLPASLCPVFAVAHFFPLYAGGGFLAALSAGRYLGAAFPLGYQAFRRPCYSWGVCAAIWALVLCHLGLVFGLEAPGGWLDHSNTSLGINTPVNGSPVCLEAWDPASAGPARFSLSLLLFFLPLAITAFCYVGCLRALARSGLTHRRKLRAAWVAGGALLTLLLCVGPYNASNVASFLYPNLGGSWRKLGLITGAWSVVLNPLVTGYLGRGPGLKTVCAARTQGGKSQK

As for `O=C(O)C[C@H](NC(=O)c1ccccc1)c1ccc(OCc2cccc(Oc3ccc(F)cc3)c2)cc1` [Compound 88.3], the concentration giving a half-maximal response (EC50) is over 10000 nM. Under `Cc1ccccc1COc1ccc(C(C#CC2CC2)CC(=O)O)cc1` (stereo not shown) [Compound 72] stands 100 to 1000 nM; under `Cc1ccc(C(CC(=O)O)c2ccc(OCc3cccc(Oc4ccccc4)c3)cc2)cc1` (single isomer, unassigned) [Compound 84.2], 1000 to 10000 nM; under `CC#CC(CC(=O)O)c1ccc(OCc2sc(-c3ccc(C(F)(F)F)cc3)nc2C)cc1` (stereo not shown) [Compound 9.1], 10 to 100 nM. `CC#CC(CC(=O)O)c1ccc(OCc2csc(-c3ccc(OC)c(OC)c3)n2)cc1` (stereo not shown) [Compound 8.6]: the concentration for a half-maximal effect (EC50) lay in the range of 100 to 1000 nM.

With `CC#CC(CC(=O)O)c1ccc(OCc2csc(-c3ccc(C(F)(F)F)cc3)n2)cc1` (stereo not shown) [Compound 8.1], the EC50 lay within 10 to 100 nM. For `CC#CC(CC(=O)O)c1ccc(OCCc2ccccc2)cc1` (stereo not shown) [Compound 17.8], the EC50 lay within 1000 to 10000 nM. As for `CC#CC(CC(=O)O)c1ccc(OCc2cccc(-n3cccc3)c2)cc1` (stereo not shown) [Compound 10.14], the EC50 fell in the range of 10 to 100 nM. For the compound `CC#CC(CC(=O)O)c1ccc(OCc2ccc(-c3cccnc3)cc2)cc1` (stereo not shown) [Compound 10.12], the EC50 lay within 1000 to 10000 nM. As to `CC#CC(CC(=O)O)c1ccc(OCc2ccc(-c3nc4ccccc4[nH]3)cc2)cc1` (stereo not shown) [Compound 78], the EC50 lay within 1000 to 10000 nM. As for `COc1cccc(/C=C/C(=O)Nc2ccc(N(CC(=O)O)c3ccccc3)cc2)c1` [Compound 82.6], the EC50 was under 10 nM.

As to `COc1ccc(COc2ccc(C(CC(=O)O)c3ccc(F)cc3)cc2)cc1` (stereo not shown) [Compound 14.2], the EC50 fell in the range of 100 to 1000 nM. Consider `CC#CC(CC(=O)O)c1ccc(OCc2cccc(-c3ccccc3OCC)c2)cc1` (stereo not shown) [Compound 6.2], for which the EC50 was in the range of 10 to 100 nM. For the compound `O=C(O)C[C@H](NC(=O)/C=C/c1ccccc1)c1ccc(OCc2cccc(Oc3ccc(F)cc3)c2)cc1` [Compound 88.5], the EC50 is over 10000 nM. To `CC#CC(CC(=O)O)c1ccc(OCc2ccccc2C)cc1` (stereo not shown) [Compound 17.6] belongs 100 to 1000 nM; to `CC#CC(CC(=O)O)c1ccc(OCc2ccc(OC)cc2)cc1` (racemic) [Compound 12, (±)-3-(4-[(4-methoxyphenyl)methoxy]phenyl)-hex-4-ynoic acid], 100 to 1000 nM; to `CC#CC(CC(=O)O)c1ccc(OCc2ccc(-c3ccncc3)cc2)cc1` (stereo not shown) [Compound 10.13], 100 to 1000 nM. With `CC#C[C@@H](CC(=O)O)c1ccc(OCc2nc(-c3ccc(C(F)(F)F)cc3)oc2C)cc1` [Compound 86], the EC50 is under 10 nM. On to `O=C(O)CC(c1ccc(OCc2cccc(-c3ccc(C(F)(F)F)cc3)c2)cc1)c1cccnc1` (stereo not shown) [Compound 70.2], for which the EC50 was 100 to 1000 nM. `CC(C)CN(CC(C)C)[C@@H](CC(=O)O)c1ccc(OCc2cccc(Oc3ccc(F)cc3)c2)cc1` [Compound 88.1]: the EC50 was over 10000 nM. Under `CC#CC(CC(=O)O)c1ccc(OCc2sc(-c3ccc(OC)c(OC)c3)nc2C)cc1` (stereo not shown) [Compound 9.4] stands 10 to 100 nM; under `CC#CC(CC(=O)O)c1ccc(OCc2sc(-c3ccccc3)nc2C)cc1` (stereo not shown) [Compound 9.3], 10 to 100 nM.

These data come from patent US20060004012A1, “Compounds, pharmaceutical compositions and methods for use in treating metabolic disorders” (priority 2004, published 2006).
